Like-named read-outs stand apart in the source and are kept apart here.
Key:
[1] = test system: Mycosphaerella graminicola; Anamorph: Septoria tritici; assay: Leaf Blotch of Wheat (SEPTTR) disease control; type: in vivo; settings: Zymoseptoria tritici; for pest or weed control at 121.5 g/ha: rate 121.5 g/H; for pest or weed control at 100 ppm: rate 100 ppm
Summary of the method: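 Wheat seedlings (Yuma, first leaf emerged) sprayed to run-off with compound in acetone/water with 110 ppm Triton X-100, or track-sprayed as EC with 0.1% Trycol 5941. Septoria tritici spores inoculated before or after treatment. Dew chambers, then 20 °C greenhouse. Percent disease control derived from severity (0–100%) relative to untreated plants.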

[2] = test system: Phakopsora pachyrhizi; assay: Asian Soybean Rust (PHAKPA) disease control; type: in vivo; settings: Phakopsora pachyrhizi, topical
Description: Technical grades of materials were dissolved in acetone, which were then mixed with nine volumes of water containing 0.011% Tween 20. The fungicide solutions were applied onto soybean seedlings using an automated booth sprayer to run-off. All sprayed plants were allowed to air dry prior to further handling.
Soybean plants (variety Williams 82) were grown in soil-less Metro mix, with one plant per pot. Two weeks old seedlings were used for testing. Plants were inoculated either 3 days prior to or 1 day after fungicide treatments. Plants were incubated for 24 h in a dark dew room at 22° C. and 100% RH then transferred to a growth room at 23° C. for disease to develop. Disease severity was assessed on the sprayed leaves.

[3] = test system: Puccinia triticina; Synonym: Puccinia recondite f. Sp. Tritici; assay: Wheat Brown Rust (PUCCRT) disease control; type: in vivo; settings: Puccinia triticina, topical; for pest or weed control at 121.5 g/ha: rate 121.5 g/H; for pest or weed control at 100 ppm: rate 100 ppm
Summary of the method: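 Brown rust on first-leaf Yuma wheat: spore inoculation before or after spray application (acetone/Triton X-100 solution, or EC with Trycol in track spray), overnight 100% RH at 22 °C, disease developed at 24 °C. Severity scored 0–100% and converted to percent control against untreated.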

[4] = 24 h, 1 Day Protectant, read-out: SEPTTR 1 DP disease control
[5] = 72 h, 3 Day Curative, read-out: SEPTTR 3 DC disease control
[6] = 24 h, 1 Day Protectant, read-out: Disease Control PHAKPA 1DP
[7] = 72 h, 3 Day Curative, read-out: Disease Control PHAKPA 3DC
[8] = 24 h, 1 Day Protectant, read-out: PUCCRT 1 DP disease control
[9] = 72 h, 3 Day Curative, read-out: PUCCRT 3 DC disease control

COc1ccnc(C(=O)N[C@H]2CCC[C@H](C)[C@@H](Oc3ccccc3)[C@H](C)OC2=O)c1OC(C)=O [Compound F76]
80 to 100%: pest or weed control at 121.5 g/ha [1, 4] | pest or weed control at 121.5 g/ha [1, 5] | pest or weed control at 25 ppm [2, 6] | pest or weed control at 25 ppm [2, 7] | pest or weed control at 121.5 g/ha [3, 8] | pest or weed control at 121.5 g/ha [3, 9]

COc1ccnc(C(=O)N[C@H]2CCC[C@H](CCC(C)C)[C@@H](OCCCC(F)(F)F)[C@H](C)OC2=O)c1OCOC(C)=O [Compound F93]
0 to 80%: pest or weed control at 25 ppm [2, 7] | pest or weed control at 121.5 g/ha [3, 9]
80 to 100%: pest or weed control at 100 ppm [1, 4] | pest or weed control at 121.5 g/ha [1, 4] | pest or weed control at 100 ppm [1, 5] | pest or weed control at 121.5 g/ha [1, 5] | pest or weed control at 25 ppm [2, 6] | pest or weed control at 100 ppm [3, 8] | pest or weed control at 121.5 g/ha [3, 8] | pest or weed control at 100 ppm [3, 9]

COCN(C(=O)OC(C)(C)C)[C@H]1CCC[C@H](CCC(C)C)[C@@H](OCCCC(F)(F)F)[C@H](C)OC1=O [Compound F203]
87 to 89 °C: melting point

C[C@@H]1OC(=O)[C@@H](N)CCC[C@H](Cc2ccc(F)cc2F)[C@H]1OCc1ccccc1.Cl
233 to 237 °C: melting point

CC(C)CO[C@@H]1[C@@H](Cc2ccc(F)cc2F)CCC[C@H](N)C(=O)O[C@H]1C.Cl
67 to 73 °C: melting point

COc1ccnc(C(=O)N[C@H]2CCC[C@H](CC3CCCC3)[C@@H](OC(=O)C(C)C)[C@H](C)OC2=O)c1OCOC(C)=O [Compound F121]
80 to 100%: pest or weed control at 100 ppm [1, 4] | pest or weed control at 121.5 g/ha [1, 4] | pest or weed control at 100 ppm [1, 5] | pest or weed control at 121.5 g/ha [1, 5] | pest or weed control at 25 ppm [2, 6] | pest or weed control at 100 ppm [3, 8] | pest or weed control at 121.5 g/ha [3, 8] | pest or weed control at 100 ppm [3, 9] | pest or weed control at 121.5 g/ha [3, 9]
0 to 80%: pest or weed control at 25 ppm [2, 7]

COc1ccnc(C(=O)N[C@H]2CCC[C@H](CCC(C)C)[C@@H](OCC3CC3)[C@H](C)OC2=O)c1OCOC(=O)C(C)C [Compound F149]
80 to 100%: pest or weed control at 100 ppm [1, 4] | pest or weed control at 121.5 g/ha [1, 4] | pest or weed control at 100 ppm [1, 5] | pest or weed control at 121.5 g/ha [1, 5] | pest or weed control at 25 ppm [2, 6] | pest or weed control at 100 ppm [3, 8] | pest or weed control at 121.5 g/ha [3, 8] | pest or weed control at 100 ppm [3, 9] | pest or weed control at 121.5 g/ha [3, 9]
0 to 80%: pest or weed control at 25 ppm [2, 7]

COCC[C@H]1CCC[C@H](NC(=O)c2nccc(OC)c2OCOC(C)=O)C(=O)O[C@@H](C)[C@@H]1OCC(C)C [Compound F132]
80 to 100%: pest or weed control at 100 ppm [1, 4] | pest or weed control at 121.5 g/ha [1, 4] | pest or weed control at 100 ppm [1, 5] | pest or weed control at 121.5 g/ha [1, 5] | pest or weed control at 25 ppm [2, 6] | pest or weed control at 25 ppm [2, 7] | pest or weed control at 100 ppm [3, 8] | pest or weed control at 121.5 g/ha [3, 8] | pest or weed control at 100 ppm [3, 9] | pest or weed control at 121.5 g/ha [3, 9]

CCOCC(=O)OCOc1c(OC)ccnc1C(=O)N[C@H]1CCC[C@H](CC)[C@@H](Oc2ccccc2)[C@H](C)OC1=O [Compound F189]
80 to 100%: pest or weed control at 100 ppm [1, 4] | pest or weed control at 121.5 g/ha [1, 4] | pest or weed control at 100 ppm [1, 5] | pest or weed control at 121.5 g/ha [1, 5] | pest or weed control at 25 ppm [2, 6] | pest or weed control at 25 ppm [2, 7] | pest or weed control at 100 ppm [3, 8] | pest or weed control at 121.5 g/ha [3, 8] | pest or weed control at 100 ppm [3, 9] | pest or weed control at 121.5 g/ha [3, 9]

COc1ccnc(C(=O)N[C@H]2CCC[C@H](CCC(C)C)[C@@H](OCC3CC3)[C@H](C)OC2=O)c1OCOC(C)=O [Compound F91]
80 to 100%: pest or weed control at 100 ppm [1, 4] | pest or weed control at 121.5 g/ha [1, 4] | pest or weed control at 100 ppm [1, 5] | pest or weed control at 121.5 g/ha [1, 5] | pest or weed control at 25 ppm [2, 6] | pest or weed control at 25 ppm [2, 7] | pest or weed control at 100 ppm [3, 8] | pest or weed control at 121.5 g/ha [3, 8] | pest or weed control at 100 ppm [3, 9] | pest or weed control at 121.5 g/ha [3, 9]

COc1ccnc(C(=O)N[C@H]2CCC[C@H](C)[C@@H](Oc3ccccc3)[C@H](C)OC2=O)c1OCOC(C)=O [Compound F124]
80 to 100%: pest or weed control at 100 ppm [1, 4] | pest or weed control at 121.5 g/ha [1, 4] | pest or weed control at 100 ppm [1, 5] | pest or weed control at 121.5 g/ha [1, 5] | pest or weed control at 25 ppm [2, 6] | pest or weed control at 25 ppm [2, 7] | pest or weed control at 100 ppm [3, 8] | pest or weed control at 121.5 g/ha [3, 8] | pest or weed control at 100 ppm [3, 9] | pest or weed control at 121.5 g/ha [3, 9]

CCOCC(=O)OCOc1c(OC)ccnc1C(=O)N[C@H]1CCC[C@H](CCC(C)C)[C@@H](OCC2CC2)[C@H](C)OC1=O [Compound F160]
80 to 100%: pest or weed control at 100 ppm [1, 4] | pest or weed control at 121.5 g/ha [1, 4] | pest or weed control at 100 ppm [1, 5] | pest or weed control at 121.5 g/ha [1, 5] | pest or weed control at 25 ppm [2, 6] | pest or weed control at 25 ppm [2, 7] | pest or weed control at 100 ppm [3, 8] | pest or weed control at 121.5 g/ha [3, 8] | pest or weed control at 100 ppm [3, 9] | pest or weed control at 121.5 g/ha [3, 9]

C=CCO[C@@H]1[C@@H](Cc2ccc(F)cc2)CCC[C@H](NC(=O)c2nccc(OC)c2OCOC(=O)COCC)C(=O)O[C@H]1C [Compound F166]
0 to 80%: pest or weed control at 25 ppm [2, 7]
80 to 100%: pest or weed control at 100 ppm [1, 4] | pest or weed control at 121.5 g/ha [1, 4] | pest or weed control at 100 ppm [1, 5] | pest or weed control at 121.5 g/ha [1, 5] | pest or weed control at 25 ppm [2, 6] | pest or weed control at 100 ppm [3, 8] | pest or weed control at 121.5 g/ha [3, 8] | pest or weed control at 100 ppm [3, 9] | pest or weed control at 121.5 g/ha [3, 9]

CCOCC(=O)OCOc1c(OC)ccnc1C(=O)N[C@H]1CCC[C@H](CCOC)[C@@H](OCC(C)C)[C@H](C)OC1=O [Compound F187]
80 to 100%: pest or weed control at 100 ppm [1, 4] | pest or weed control at 121.5 g/ha [1, 4] | pest or weed control at 100 ppm [1, 5] | pest or weed control at 121.5 g/ha [1, 5] | pest or weed control at 25 ppm [2, 6] | pest or weed control at 25 ppm [2, 7] | pest or weed control at 100 ppm [3, 8] | pest or weed control at 121.5 g/ha [3, 8] | pest or weed control at 100 ppm [3, 9] | pest or weed control at 121.5 g/ha [3, 9]

COc1ccnc(C(=O)N[C@H]2CCC[C@H](CCSC)[C@@H](OCC(C)C)[C@H](C)OC2=O)c1OCOC(C)=O [Compound F131]
80 to 100%: pest or weed control at 100 ppm [1, 4] | pest or weed control at 100 ppm [1, 5] | pest or weed control at 121.5 g/ha [1, 5] | pest or weed control at 100 ppm [3, 8] | pest or weed control at 121.5 g/ha [3, 8] | pest or weed control at 100 ppm [3, 9] | pest or weed control at 121.5 g/ha [3, 9]
0 to 80%: pest or weed control at 121.5 g/ha [1, 4]

CCOCC(=O)OCOc1c(OC)ccnc1C(=O)N[C@H]1CCC[C@H](CCOc2ccccc2)[C@@H](Oc2ccccc2)[C@H](C)OC1=O [Compound F182]
0 to 80%: pest or weed control at 121.5 g/ha [3, 9]
80 to 100%: pest or weed control at 100 ppm [1, 4] | pest or weed control at 121.5 g/ha [1, 4] | pest or weed control at 100 ppm [1, 5] | pest or weed control at 121.5 g/ha [1, 5] | pest or weed control at 100 ppm [3, 8] | pest or weed control at 121.5 g/ha [3, 8] | pest or weed control at 100 ppm [3, 9]

COc1ccnc(C(=O)N[C@H]2CCC[C@H](CCC(C)C)[C@@H](OCC3CC3)[C@H](C)OC2=O)c1OC(C)=O [Compound F63]
80 to 100%: pest or weed control at 100 ppm [1, 4] | pest or weed control at 121.5 g/ha [1, 4] | pest or weed control at 100 ppm [1, 5] | pest or weed control at 121.5 g/ha [1, 5] | pest or weed control at 25 ppm [2, 6] | pest or weed control at 25 ppm [2, 7] | pest or weed control at 100 ppm [3, 8] | pest or weed control at 121.5 g/ha [3, 8] | pest or weed control at 100 ppm [3, 9] | pest or weed control at 121.5 g/ha [3, 9]

COc1ccnc(C(=O)N[C@H]2CCC[C@H](CCSC)[C@@H](OCC(C)C)[C@H](C)OC2=O)c1O [Compound F46]
0 to 80%: pest or weed control at 100 ppm [1, 4]
80 to 100%: pest or weed control at 100 ppm [1, 5] | pest or weed control at 100 ppm [3, 8] | pest or weed control at 100 ppm [3, 9]

COc1ccnc(C(=O)N[C@H]2CCC[C@H](C)[C@@H](Oc3ccccc3)[C@H](C)OC2=O)c1OCOC(=O)C(C)C [Compound F155]
80 to 100%: pest or weed control at 100 ppm [1, 4] | pest or weed control at 121.5 g/ha [1, 4] | pest or weed control at 100 ppm [1, 5] | pest or weed control at 121.5 g/ha [1, 5] | pest or weed control at 25 ppm [2, 6] | pest or weed control at 25 ppm [2, 7] | pest or weed control at 100 ppm [3, 8] | pest or weed control at 121.5 g/ha [3, 8] | pest or weed control at 100 ppm [3, 9] | pest or weed control at 121.5 g/ha [3, 9]

CC[C@H]1CCC[C@H](NC(=O)c2nccc(OC)c2OCOC(C)=O)C(=O)O[C@@H](C)[C@@H]1Oc1ccccc1 [Compound F136]
80 to 100%: pest or weed control at 100 ppm [1, 4] | pest or weed control at 121.5 g/ha [1, 4] | pest or weed control at 100 ppm [1, 5] | pest or weed control at 121.5 g/ha [1, 5] | pest or weed control at 100 ppm [3, 8] | pest or weed control at 121.5 g/ha [3, 8] | pest or weed control at 100 ppm [3, 9] | pest or weed control at 121.5 g/ha [3, 9]

From patent publication US9265253B2, “Use of macrocyclic picolinamides as fungicides” (DOW AGROSCIENCES LLC, priority 2013, dated 2016)
